Laboratory results taken from patent US11339419B2, “Scavenger protein(s) for improved preservation of analyte detection sensor(s) and method(s) of use thereof” (Siemens Healthcare Diagnostics Inc., priority 2017, dated 2022).
Where “and” joins values, the source holds several entries; their conditions need not be identical. Equal entries are not always repeated.

How the values were obtained:
creatininase (Toyobo) = experiment: Toyobo Creatininase Enzyme Absorbance with BSA and Proclin 300; format: biochemical
Description: (§1) Absorbance measurements of the creatininase enzyme(s) were taken via spectrophotometer for each aqueous solution (represented as columns 1-5 in Tables 5-8—column 6 is a blank), the absorbance being directly proportional to the enzyme activity being measured-which for Tables 5-8 is creatininase enzyme activity. Accordingly, the higher the absorbance measurement, the higher the enzyme activity of creatininase. […] In addition, the mean values, standard deviations, and coefficients of variation are all presented for the enzyme activity/absorbance of each aqueous solution. All measurements were taken at 37° C.

[1] = test system: sarcosine oxidase (BBI Solutions); experiment: BBI Solutions Sarcosine Oxidase Enzyme Absorbance with BSA and Proclin 300; format: biochemical
Description: as §1, with “sarcosine oxidase” for “creatininase”, “1-4—column” for “5-8—column”, “1-4” for “5-8”, “sarcosine oxidase.” for “creatininase.”, “also” for “all”

[2] = Day 0, BSA 5 mg/mL only, no Proclin 300, listed as of 0.7% Proclin 300
[3] = Day 0, BSA 5 mg/mL only, no Proclin 300, listed as of 1.4% Proclin 300
[4] = Day 0, BSA 25 mg/mL only, no Proclin 300, listed as of 0.7% Proclin 300
[5] = Day 0, BSA 25 mg/mL only, no Proclin 300, listed as of 1.4% Proclin 300
[6] = Day 0, BSA 50 mg/mL only, no Proclin 300, listed as of 0.7% Proclin 300
[7] = Day 0, BSA 50 mg/mL only, no Proclin 300, listed as of 1.4% Proclin 300
[8] = days 4 and 14, only BSA, no Proclin 300
[9] = Day 0, BSA 5 mg/mL only, no Proclin 300, line of 0.7% Proclin 300
[10] = Day 0, BSA 5 mg/mL only, no Proclin 300, line of 1.4% Proclin 300
[11] = Day 0, BSA 25 mg/mL only, no Proclin 300, line of 0.7% Proclin 300
[12] = Day 0, BSA 25 mg/mL only, no Proclin 300, line of 1.4% Proclin 300
[13] = Day 0, BSA 50 mg/mL only, no Proclin 300, line of 0.7% Proclin 300
[14] = Day 0, BSA 50 mg/mL only, no Proclin 300, line of 1.4% Proclin 300
[15] = Day 4, BSA 5 mg/mL only, no Proclin 300, line of 0.7% Proclin 300
[16] = Day 4, BSA 5 mg/mL only, no Proclin 300, line of 1.4% Proclin 300
[17] = Day 4, BSA 25 mg/mL only, no Proclin 300, line of 0.7% Proclin 300
[18] = Day 4, BSA 25 mg/mL only, no Proclin 300, line of 1.4% Proclin 300
[19] = Day 4, BSA 50 mg/mL only, no Proclin 300, line of 0.7% Proclin 300
[20] = Day 4, BSA 50 mg/mL only, no Proclin 300, line of 1.4% Proclin 300
[21] = Day 14, BSA 5 mg/mL only, no Proclin 300, line of 0.7% Proclin 300
[22] = Day 14, BSA 5 mg/mL only, no Proclin 300, line of 1.4% Proclin 300
[23] = Day 14, BSA 25 mg/mL only, no Proclin 300, line of 0.7% Proclin 300
[24] = Day 14, BSA 25 mg/mL only, no Proclin 300, line of 1.4% Proclin 300
[25] = Day 14, BSA 50 mg/mL only, no Proclin 300, line of 0.7% Proclin 300
[26] = Day 14, BSA 50 mg/mL only, no Proclin 300, line of 1.4% Proclin 300

Absorbance, solutions 7-11 (creatininase (Toyobo); [2]): 0.749
MEAN absorbance, solutions 7-11 (creatininase (Toyobo); [2]): 0.61
Absorbance, solutions 7-11 (creatininase (Toyobo); [3]): 0.569 and 0.573 and 0.57 and 0.582
MEAN absorbance, solutions 7-11 (creatininase (Toyobo); [3]): 0.47
Absorbance, solutions 7-11 (creatininase (Toyobo); [4]): 0.529
MEAN absorbance, solutions 7-11 (creatininase (Toyobo); [4]): 0.40
Absorbance, solutions 7-11 (creatininase (Toyobo); [5]): 0.508 and 0.507 and 0.518 and 0.514
MEAN absorbance, solutions 7-11 (creatininase (Toyobo); [5]): 0.41
Absorbance, solutions 7-11 (creatininase (Toyobo); [6]): 0.973
MEAN absorbance, solutions 7-11 (creatininase (Toyobo); [6]): 1.39
Absorbance, solutions 7-11 (creatininase (Toyobo); [7]): 0.488 and 0.464 and 0.506
MEAN absorbance, solutions 7-11 (creatininase (Toyobo); [7]): 0.39
MEAN absorbance, solutions 7-11 (creatininase (Toyobo); Day 4, BSA 5 mg/mL only, no Proclin 300, listed as of 0.7% Proclin 300): 0.87
MEAN absorbance, solutions 7-11 (creatininase (Toyobo); Day 4, BSA 5 mg/mL only, no Proclin 300, listed as of 1.4% Proclin 300): 0.78
MEAN absorbance, solutions 7-11 (creatininase (Toyobo); Day 4, BSA 25 mg/mL only, no Proclin 300, listed as of 0.7% Proclin 300): 0.68
MEAN absorbance, solutions 7-11 (creatininase (Toyobo); Day 4, BSA 25 mg/mL only, no Proclin 300, listed as of 1.4% Proclin 300): 0.64
MEAN absorbance, solutions 7-11 (creatininase (Toyobo); Day 4, BSA 50 mg/mL only, no Proclin 300, listed as of 0.7% Proclin 300): 0.56
MEAN absorbance, solutions 7-11 (creatininase (Toyobo); Day 4, BSA 50 mg/mL only, no Proclin 300, listed as of 1.4% Proclin 300): 0.54
MEAN absorbance, solutions 7-11 (creatininase (Toyobo); Day 14, BSA 5 mg/mL only, no Proclin 300, listed as of 0.7% Proclin 300): 0.92
MEAN absorbance, solutions 7-11 (creatininase (Toyobo); Day 14, BSA 5 mg/mL only, no Proclin 300, listed as of 1.4% Proclin 300): 0.90
MEAN absorbance, solutions 7-11 (creatininase (Toyobo); Day 14, BSA 25 mg/mL only, no Proclin 300, listed as of 0.7% Proclin 300): 0.71
MEAN absorbance, solutions 7-11 (creatininase (Toyobo); Day 14, BSA 25 mg/mL only, no Proclin 300, listed as of 1.4% Proclin 300): 0.71
MEAN absorbance, solutions 7-11 (creatininase (Toyobo); Day 14, BSA 50 mg/mL only, no Proclin 300, listed as of 0.7% Proclin 300): 0.58
MEAN absorbance, solutions 7-11 (creatininase (Toyobo); Day 14, BSA 50 mg/mL only, no Proclin 300, listed as of 1.4% Proclin 300): 0.57
absorbance of the creatininase enzyme compared to samples containing 0 mg/mL of BSA (creatininase (Toyobo); day 4, Proclin 300 0.7%, 5, 25 and 50 mg/mL BSA): increased (albeit a mild increase)
creatininase absorbance, solutions 7-11 (creatininase (Toyobo); [8]): increased (or at least maintained)
Absorbance, solutions 7-11 [1, 9]: 1.447 and 1.677 and 1.453 and 1.748
MEAN absorbance, solutions 7-11 [1, 9]: 1.51
MEAN absorbance, solutions 7-11 [1, 10]: 1.40
MEAN absorbance, solutions 7-11 [1, 11]: 1.37
MEAN absorbance, solutions 7-11 [1, 12]: 1.34
MEAN absorbance, solutions 7-11 [1, 13]: 1.35
MEAN absorbance, solutions 7-11 [1, 14]: 1.35
MEAN absorbance, solutions 7-11 [1, 15]: 1.45
MEAN absorbance, solutions 7-11 [1, 16]: 1.42
MEAN absorbance, solutions 7-11 [1, 17]: 1.40
MEAN absorbance, solutions 7-11 [1, 18]: 1.38
MEAN absorbance, solutions 7-11 [1, 19]: 1.38
Absorbance, solutions 7-11 [1, 20]: 1.38 and 1.397 and 1.399 and 1.403
MEAN absorbance, solutions 7-11 [1, 20]: 1.35
MEAN absorbance, solutions 7-11 [1, 21]: 1.49
Absorbance, solutions 7-11 [1, 22]: 1.527 and 1.53 and 1.526 and 1.566
MEAN absorbance, solutions 7-11 [1, 22]: 1.49
MEAN absorbance, solutions 7-11 [1, 23]: 1.47
MEAN absorbance, solutions 7-11 [1, 24]: 1.47
MEAN absorbance, solutions 7-11 [1, 25]: 1.46
MEAN absorbance, solutions 7-11 [1, 26]: 1.46
absorbance of the sarcosine oxidase enzyme compared to samples containing 0 mg/mL of BSA ([1]; days 4 and 14, 5, 25 and 50 mg/mL BSA, with Proclin 300): increased absorbance
sarcosine oxidase absorbance, solutions 7-11 [1, 8]: increased (or at least maintained)
Substance: bovine serum albumin [BSA]
Absorbance, solutions 7-11 [1, 10]: 1.464 and 1.437 and 1.453 and 1.458 and 1.444
Absorbance, solutions 7-11 [1, 11]: 1.429 and 1.441 and 1.415 and 1.398 and 1.406
Absorbance, solutions 7-11 [1, 12]: 1.39 and 1.396 and 1.375 and 1.392 and 1.376
Absorbance, solutions 7-11 [1, 13]: 1.376 and 1.375 and 1.399 and 1.416 and 1.421
Absorbance, solutions 7-11 [1, 14]: 1.402 and 1.394 and 1.401 and 1.397 and 1.396
Absorbance, solutions 7-11 [1, 15]: 1.505 and 1.507 and 1.518 and 1.472 and 1.484
Absorbance, solutions 7-11 [1, 16]: 1.446 and 1.471 and 1.449 and 1.46 and 1.484
Absorbance, solutions 7-11 [1, 17]: 1.45 and 1.451 and 1.465 and 1.418 and 1.415
Absorbance, solutions 7-11 [1, 18]: 1.416 and 1.421 and 1.436 and 1.431 and 1.426
Absorbance, solutions 7-11 [1, 19]: 1.416 and 1.425 and 1.435 and 1.402 and 1.421
Absorbance, solutions 7-11 [1, 21]: 1.53 and 1.542 and 1.526 and 1.538 and 1.535
Absorbance, solutions 7-11 [1, 23]: 1.498 and 1.527 and 1.533 and 1.503 and 1.505
Absorbance, solutions 7-11 [1, 24]: 1.499 and 1.497 and 1.533 and 1.539 and 1.525
Absorbance, solutions 7-11 [1, 25]: 1.493 and 1.499 and 1.505 and 1.513 and 1.541
Absorbance, solutions 7-11 [1, 26]: 1.467 and 1.491 and 1.482 and 1.534 and 1.529
